According to patent US6004948A, “Derivatives of benzosulphonamides as inhibitors of the enzyme cyclooxygenase II” (Nycomed Austria GmbH, priority 1995, dated 1999):

Tests used:
[1] = molecular target: T1, Human COX-2 (Homo sapiens, UniProt P35354); experiment: Human COX-2 test (LPS-stimulated human monocytoid cell line, arachidonic acid, cyclooxygenase products by ELISA); assay type: cell-based; details: for IC50: human monocytoid cell line, LPS-stimulated, half an hour pre-incubation, arachidonic acid 15 minutes, ELISA, read-out: COX II IC50; for COX I/COX II: selectivity obtained from the two tests, ratio of COX I IC50 to COX II IC50
T1 construct: endogenous in cells
T1 sequence (P35354 18-604): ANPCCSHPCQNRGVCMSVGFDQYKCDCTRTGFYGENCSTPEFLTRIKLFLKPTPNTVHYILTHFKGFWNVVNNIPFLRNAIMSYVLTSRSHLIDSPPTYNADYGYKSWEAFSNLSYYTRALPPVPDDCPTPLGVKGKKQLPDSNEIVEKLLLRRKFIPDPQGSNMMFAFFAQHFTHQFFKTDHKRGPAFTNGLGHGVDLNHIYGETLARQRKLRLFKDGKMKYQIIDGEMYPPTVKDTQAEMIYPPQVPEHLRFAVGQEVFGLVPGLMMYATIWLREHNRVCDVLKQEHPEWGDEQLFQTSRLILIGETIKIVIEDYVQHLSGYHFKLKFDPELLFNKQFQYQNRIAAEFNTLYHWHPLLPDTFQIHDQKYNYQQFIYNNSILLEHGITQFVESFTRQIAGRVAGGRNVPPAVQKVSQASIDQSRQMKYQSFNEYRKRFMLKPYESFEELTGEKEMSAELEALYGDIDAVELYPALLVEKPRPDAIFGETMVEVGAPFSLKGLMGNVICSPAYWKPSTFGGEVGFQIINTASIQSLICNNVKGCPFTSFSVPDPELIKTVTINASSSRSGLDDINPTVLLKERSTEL
Description: Cells from a human monocytoid cell line are stimulated with LPS (incubator at 37° C., 5% CO2 -enriched atmosphere and approximately 100% relative humidity), in order to induce COX-2. Then the culture medium (RPMI 1640 enriched with 10% FCS, 2 mM glutamine, […], […] and 1 mM pyruvate) was renewed and potential inhibitors of cyclooxygenase-2, dissolved in culture medium or in phosphate-buffered saline or in any other solvent which is compatible with cell culture, were added and incubated for half an hour as described above. Arachidonic acid was pipetted in and incubation was continued for 15 minutes. The culture supernatant of the cells was removed and its content of products of cyclooxygenase metabolism (such as prostaglandin E2, prostaglandin F1a and thromboxane B2) was measured by ELISA.

[2] = molecular target: T2, Human COX 1 (Homo sapiens, UniProt P23219); experiment: Human COX 1 test (arachidonic acid-induced aggregation of washed human thrombocytes); assay type: cell-based; details: arachidonic acid 10 μM, 37° C., substance added 2 minutes before, read-out: COX I IC50
T2 construct: arachidonic acid-induced aggregation of washed human thrombocytes; endogenous in cells; host or cells: washed human thrombocytes (platelets)
T2 sequence (P23219 24-599): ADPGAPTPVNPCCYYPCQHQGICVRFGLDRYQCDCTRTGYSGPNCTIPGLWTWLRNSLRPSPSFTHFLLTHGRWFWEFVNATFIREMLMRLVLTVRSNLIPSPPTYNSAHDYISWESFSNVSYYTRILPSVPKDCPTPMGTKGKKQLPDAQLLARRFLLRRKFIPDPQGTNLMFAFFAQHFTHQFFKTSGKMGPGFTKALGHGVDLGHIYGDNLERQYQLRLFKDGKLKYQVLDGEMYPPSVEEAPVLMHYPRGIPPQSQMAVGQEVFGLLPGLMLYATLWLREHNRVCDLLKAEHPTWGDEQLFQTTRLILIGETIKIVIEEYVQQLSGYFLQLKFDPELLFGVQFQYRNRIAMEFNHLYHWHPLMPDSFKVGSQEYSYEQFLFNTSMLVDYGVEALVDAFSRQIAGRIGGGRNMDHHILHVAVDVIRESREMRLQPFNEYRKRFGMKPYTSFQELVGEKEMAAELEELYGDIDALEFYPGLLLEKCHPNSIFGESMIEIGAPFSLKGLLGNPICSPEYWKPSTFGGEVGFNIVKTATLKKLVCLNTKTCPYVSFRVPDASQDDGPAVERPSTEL
Description: The inhibition of arachidonic acid-induced aggregation of washed human thrombocytes was used as a test system for assessing the inhibition of cyclooxygenase I. The test substances were added to a thrombocyte suspension at 37° C. 2 minutes before the addition of the arachidonic acid (final concentration 10 μM) and the course of aggregation was measured using an aggregometer. By means of a concentration-activity curve the concentration of test substance at which 50% aggregation is measured was determined (IC50).

| SMILES | IC50 [1] [nM] | COX I/COX II [1] | IC50 [2] [nM] |
| --- | --- | --- | --- |
| CS(=O)(=O)Nc1ccc(S(N)(=O)=O)cc1Oc1ccc(Cl)cc1Cl [Example 1, 3-(2,4-Dichlorophenoxy)-4-methylsulphonylamino-benzenesulphonamide] | 100 | ≥ 500 | ≥ 50000 |
| CS(=O)(=O)Nc1cc2c(cc1Oc1ccccc1)S(=O)(=O)NC2 [Example 4, 6-(Phenoxy) -5-methylsulphonylamino-2H-1,2-benzothiazolidin-1,1-dioxide] | 110 | ≥ 450 | ≥ 45000 |
| CS(=O)(=O)Nc1ccc(S(N)(=O)=O)cc1Sc1ccc(F)cc1F [Example 6, 3-(2,4-Difluorothiophenoxy)-4-methylsulphonylamino-benzenesulphonamide] | 200 | 260 | 52000 |
| CS(=O)(=O)Nc1ccc(S(N)(=O)=O)cc1Sc1ccc(Cl)cc1Cl [Example 7, 3-(2,4-Dichlorothiophenoxy)-4-methylsulphonylamino-benzenesulphonamide] | 27 | 1000 | 27000 |

Continued, values first:

| IC50 [1] [nM] | COX I/COX II [1] | IC50 [2] [nM] | SMILES |
| --- | --- | --- | --- |
| 150 | 73 | 11000 | CS(=O)(=O)Nc1ccc(S(N)(=O)=O)cc1Sc1ccc(F)cc1Cl [Example 8, 3-(2-Chloro-4-fluorothiophenoxy)-4-methylsulphonylamino-benzene-sulphonamide] |
| 170 | 353 | 60000 | CS(=O)(=O)Nc1ccc(S(N)(=O)=O)cc1Sc1ccc(Cl)cc1 [Example 17, 3-(4-Chlorophenylthio) -4-methylsulphonylaminobenzenesulphonamide] |
| 540 | ≥ 110 | ≥ 60000 | CS(=O)(=O)Nc1ccc(S(N)(=O)=O)cc1SC1CCCCC1 [Example 19, 3-(Cyclohexylthio)-4-methylsulphonylaminobenzene-sulphonamide] |
| 170 | ≥ 196 | ≥ 35000 | CS(=O)(=O)Nc1ccc(S(N)(=O)=O)cc1Sc1ccccc1Cl [Example 25, 3-(2-Chlorophenylthio)-4-methylsulphonylaminobenzene-sulphonamide] |
| 270 | ≥ 253 | ≥ 70000 | CS(=O)(=O)Nc1ccc(S(N)(=O)=O)cc1Sc1ccc(Br)cc1 [Example 26, 3-(4-Bromophenylthio)-4-methylsulphonylaminobenzenesulphonamide] |
